Legend:
Assay in all cases: biochemical
Set-up in all cases: KINOMEscan competition binding panel, per cent of control
Settings in all cases: read-out: %Ctrl @ 2800nM
TAOK1 = TAOK1 (Homo sapiens, UniProt Q7L7X3)
Method in brief: (§1)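 Values are expressed as percent of control, calculated as ((test − positive control)/(negative control − positive control)) × 100, so lower numbers mean stronger hits. Binding was measured by KINOMEscan competition assay in a 450-kinase human panel including disease mutants, using the contractor's validated protocol.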

DYRK2 = DYRK2 (Homo sapiens, UniProt Q92630)
Method in brief: as §1

PRKCI = PRKCI (Homo sapiens, UniProt P41743)
Method in brief: as §1

ERN1 = ERN1 (Homo sapiens, UniProt O75460)
Method in brief: as §1

FER = FER (Homo sapiens, UniProt P16591)
Method in brief: as §1

MARK1 = MARK1 (Homo sapiens, UniProt Q9P0L2)
Method in brief: as §1

[1] = target: T1, RPS6KA5(Kin.Dom.2-C-terminal) (Homo sapiens, UniProt O75582)
T1 construct: Kin.Dom.2-C-terminal
Method in brief: as §1

IGF1R = IGF1R (Homo sapiens, UniProt P08069)
Method in brief: as §1

NEK9 = NEK9 (Homo sapiens, UniProt Q8TD19)
Method in brief: as §1

PIK3CA(C420R) = PIK3CA(C420R) (Homo sapiens, UniProt P42336, C420R)
Method in brief: as §1

GRK7 = GRK7 (Homo sapiens, UniProt Q8WTQ7)
Method in brief: as §1

p38-gamma = target: T2, p38-gamma (Homo sapiens, UniProt P53778)
T2 construct: gene MAPK12
Method in brief: as §1

LZK = target: T3, LZK (Homo sapiens, UniProt O43283)
T3 construct: gene MAP3K13
Method in brief: as §1

[2] = target: T4, RSK1(Kin.Dom.1-N-terminal) (Homo sapiens, UniProt Q15418)
T4 construct: gene RPS6KA1; Kin.Dom.1-N-terminal
Method in brief: as §1

[3] = target: T5, ABL1(F317I)-nonphosphorylated (Homo sapiens, UniProt P00519, F317I)
T5 construct: nonphosphorylated
Method in brief: as §1

NEK5 = NEK5 (Homo sapiens, UniProt Q6P3R8)
Method in brief: as §1

[4] = target: T6, ABL1(E255K)-phosphorylated (Homo sapiens, UniProt P00519, E255K)
T6 construct: phosphorylated
Method in brief: as §1

[5] = target: T7, ABL1(T315I)-phosphorylated (Homo sapiens, UniProt P00519, T315I)
T7 construct: phosphorylated
Method in brief: as §1

FYN = FYN (Homo sapiens, UniProt P06241)
Method in brief: as §1

FES = FES (Homo sapiens, UniProt P07332)
Method in brief: as §1

GRK2 = GRK2 (Homo sapiens, UniProt P25098)
Method in brief: as §1

PIK3CB = PIK3CB (Homo sapiens, UniProt P42338)
Method in brief: as §1

CSNK1G3 = CSNK1G3 (Homo sapiens, UniProt Q9Y6M4)
Method in brief: as §1

SGK = target: T8, SGK (Homo sapiens, UniProt O00141)
T8 construct: gene SGK1
Method in brief: as §1

PAK1 = PAK1 (Homo sapiens, UniProt Q13153)
Method in brief: as §1

TNK2 = TNK2 (Homo sapiens, UniProt Q07912)
Method in brief: as §1

T3 sequence (O43283 whole entry): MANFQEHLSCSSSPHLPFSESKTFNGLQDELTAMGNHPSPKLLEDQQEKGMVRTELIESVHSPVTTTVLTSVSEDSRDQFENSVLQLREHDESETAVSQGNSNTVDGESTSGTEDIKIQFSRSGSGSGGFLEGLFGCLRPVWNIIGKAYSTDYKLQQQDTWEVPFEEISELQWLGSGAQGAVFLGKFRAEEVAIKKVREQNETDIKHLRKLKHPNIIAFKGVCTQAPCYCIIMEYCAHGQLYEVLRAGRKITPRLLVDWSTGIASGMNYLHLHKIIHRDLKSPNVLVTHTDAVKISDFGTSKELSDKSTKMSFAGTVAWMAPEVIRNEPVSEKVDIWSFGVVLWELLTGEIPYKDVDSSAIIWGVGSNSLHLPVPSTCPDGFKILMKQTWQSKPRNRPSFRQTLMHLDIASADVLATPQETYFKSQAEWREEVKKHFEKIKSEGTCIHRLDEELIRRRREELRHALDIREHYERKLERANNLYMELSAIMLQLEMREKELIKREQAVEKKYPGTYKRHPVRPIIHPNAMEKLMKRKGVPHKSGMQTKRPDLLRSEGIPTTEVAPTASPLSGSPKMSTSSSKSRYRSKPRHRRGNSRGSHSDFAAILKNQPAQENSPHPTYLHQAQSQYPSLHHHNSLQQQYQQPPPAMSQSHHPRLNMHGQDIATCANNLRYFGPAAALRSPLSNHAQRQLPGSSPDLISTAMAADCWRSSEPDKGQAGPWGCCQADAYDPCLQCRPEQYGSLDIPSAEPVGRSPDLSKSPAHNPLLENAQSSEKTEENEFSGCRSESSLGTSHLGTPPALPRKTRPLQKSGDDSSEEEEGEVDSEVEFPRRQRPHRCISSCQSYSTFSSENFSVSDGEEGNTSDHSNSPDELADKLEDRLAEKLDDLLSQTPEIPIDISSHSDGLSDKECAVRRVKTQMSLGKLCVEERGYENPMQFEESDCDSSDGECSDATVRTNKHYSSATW
CSNK1G3, sequence (Q9Y6M4 whole entry): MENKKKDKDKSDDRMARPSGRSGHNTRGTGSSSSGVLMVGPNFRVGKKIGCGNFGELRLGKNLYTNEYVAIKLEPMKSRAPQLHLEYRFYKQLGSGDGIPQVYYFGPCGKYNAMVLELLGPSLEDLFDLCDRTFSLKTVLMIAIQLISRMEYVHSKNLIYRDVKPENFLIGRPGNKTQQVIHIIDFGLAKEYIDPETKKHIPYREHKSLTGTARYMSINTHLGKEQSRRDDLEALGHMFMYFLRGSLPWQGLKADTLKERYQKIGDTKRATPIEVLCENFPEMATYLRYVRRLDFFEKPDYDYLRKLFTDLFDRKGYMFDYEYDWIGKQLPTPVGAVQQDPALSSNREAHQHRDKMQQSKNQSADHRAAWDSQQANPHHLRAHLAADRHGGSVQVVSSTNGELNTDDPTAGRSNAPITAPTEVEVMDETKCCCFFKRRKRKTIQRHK
NEK5, sequence (Q6P3R8 whole entry): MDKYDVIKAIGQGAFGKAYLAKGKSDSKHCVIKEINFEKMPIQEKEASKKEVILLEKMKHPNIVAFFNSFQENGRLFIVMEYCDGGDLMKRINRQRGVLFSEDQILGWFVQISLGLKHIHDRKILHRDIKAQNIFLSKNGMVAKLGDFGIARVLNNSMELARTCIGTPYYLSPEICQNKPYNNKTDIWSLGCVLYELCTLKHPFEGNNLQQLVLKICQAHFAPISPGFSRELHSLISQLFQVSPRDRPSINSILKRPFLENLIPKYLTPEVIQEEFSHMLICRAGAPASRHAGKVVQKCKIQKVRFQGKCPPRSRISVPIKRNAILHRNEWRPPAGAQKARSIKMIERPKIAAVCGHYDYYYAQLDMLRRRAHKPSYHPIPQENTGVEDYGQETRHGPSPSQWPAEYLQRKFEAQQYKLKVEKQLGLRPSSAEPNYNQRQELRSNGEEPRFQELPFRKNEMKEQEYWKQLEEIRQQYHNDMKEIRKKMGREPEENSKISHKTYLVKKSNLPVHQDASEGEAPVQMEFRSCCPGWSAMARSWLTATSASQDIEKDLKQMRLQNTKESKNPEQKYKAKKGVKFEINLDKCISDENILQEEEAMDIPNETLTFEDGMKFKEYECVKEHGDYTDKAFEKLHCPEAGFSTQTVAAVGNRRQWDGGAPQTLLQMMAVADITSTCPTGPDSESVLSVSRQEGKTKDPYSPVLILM
TAOK1, sequence (Q7L7X3 whole entry): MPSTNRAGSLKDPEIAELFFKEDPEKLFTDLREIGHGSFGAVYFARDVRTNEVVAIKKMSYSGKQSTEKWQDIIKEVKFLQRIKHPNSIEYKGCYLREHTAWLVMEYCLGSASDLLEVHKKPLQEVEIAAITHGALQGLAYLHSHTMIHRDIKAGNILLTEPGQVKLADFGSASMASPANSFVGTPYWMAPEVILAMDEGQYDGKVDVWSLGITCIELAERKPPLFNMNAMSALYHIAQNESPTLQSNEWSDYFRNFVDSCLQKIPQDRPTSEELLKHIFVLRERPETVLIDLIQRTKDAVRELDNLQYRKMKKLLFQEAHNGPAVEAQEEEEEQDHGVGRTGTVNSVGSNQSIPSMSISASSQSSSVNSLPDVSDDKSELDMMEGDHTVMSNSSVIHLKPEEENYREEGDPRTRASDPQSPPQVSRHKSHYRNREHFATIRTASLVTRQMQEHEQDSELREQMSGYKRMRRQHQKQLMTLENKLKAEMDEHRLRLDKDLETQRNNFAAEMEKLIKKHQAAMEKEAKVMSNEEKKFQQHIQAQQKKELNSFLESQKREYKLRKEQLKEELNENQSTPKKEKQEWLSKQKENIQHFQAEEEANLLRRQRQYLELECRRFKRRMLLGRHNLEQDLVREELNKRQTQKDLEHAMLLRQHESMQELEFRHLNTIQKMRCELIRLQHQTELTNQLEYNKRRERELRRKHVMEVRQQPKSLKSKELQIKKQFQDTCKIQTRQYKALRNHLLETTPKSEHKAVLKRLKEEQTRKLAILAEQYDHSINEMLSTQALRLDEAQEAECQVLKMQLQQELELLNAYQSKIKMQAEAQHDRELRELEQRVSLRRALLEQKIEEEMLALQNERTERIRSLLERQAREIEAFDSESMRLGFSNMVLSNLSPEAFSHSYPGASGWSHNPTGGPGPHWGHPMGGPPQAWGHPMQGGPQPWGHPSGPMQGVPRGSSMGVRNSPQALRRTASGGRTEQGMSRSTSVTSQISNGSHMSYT
T1 sequence (O75582 whole entry): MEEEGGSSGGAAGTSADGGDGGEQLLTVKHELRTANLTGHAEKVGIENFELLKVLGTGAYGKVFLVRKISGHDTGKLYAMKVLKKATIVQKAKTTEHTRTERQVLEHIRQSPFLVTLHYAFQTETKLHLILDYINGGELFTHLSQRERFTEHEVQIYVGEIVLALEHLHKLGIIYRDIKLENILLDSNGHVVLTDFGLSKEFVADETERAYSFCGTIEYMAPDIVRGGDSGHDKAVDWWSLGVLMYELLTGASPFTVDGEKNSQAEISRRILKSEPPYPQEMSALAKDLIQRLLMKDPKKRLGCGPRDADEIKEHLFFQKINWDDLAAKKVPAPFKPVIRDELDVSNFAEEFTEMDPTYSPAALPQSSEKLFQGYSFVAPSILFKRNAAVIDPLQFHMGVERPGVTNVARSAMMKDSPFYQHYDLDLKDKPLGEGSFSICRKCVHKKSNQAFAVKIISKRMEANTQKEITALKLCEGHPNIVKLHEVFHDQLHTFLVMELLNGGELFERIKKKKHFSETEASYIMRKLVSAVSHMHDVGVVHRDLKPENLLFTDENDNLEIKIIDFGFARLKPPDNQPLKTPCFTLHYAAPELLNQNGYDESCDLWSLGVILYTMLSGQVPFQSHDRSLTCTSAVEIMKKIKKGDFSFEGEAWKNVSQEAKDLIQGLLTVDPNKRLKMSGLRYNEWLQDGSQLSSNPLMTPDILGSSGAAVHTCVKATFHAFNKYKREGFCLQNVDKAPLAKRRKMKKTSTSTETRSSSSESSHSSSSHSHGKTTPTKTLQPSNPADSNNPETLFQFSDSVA
NEK9, sequence (Q8TD19 whole entry): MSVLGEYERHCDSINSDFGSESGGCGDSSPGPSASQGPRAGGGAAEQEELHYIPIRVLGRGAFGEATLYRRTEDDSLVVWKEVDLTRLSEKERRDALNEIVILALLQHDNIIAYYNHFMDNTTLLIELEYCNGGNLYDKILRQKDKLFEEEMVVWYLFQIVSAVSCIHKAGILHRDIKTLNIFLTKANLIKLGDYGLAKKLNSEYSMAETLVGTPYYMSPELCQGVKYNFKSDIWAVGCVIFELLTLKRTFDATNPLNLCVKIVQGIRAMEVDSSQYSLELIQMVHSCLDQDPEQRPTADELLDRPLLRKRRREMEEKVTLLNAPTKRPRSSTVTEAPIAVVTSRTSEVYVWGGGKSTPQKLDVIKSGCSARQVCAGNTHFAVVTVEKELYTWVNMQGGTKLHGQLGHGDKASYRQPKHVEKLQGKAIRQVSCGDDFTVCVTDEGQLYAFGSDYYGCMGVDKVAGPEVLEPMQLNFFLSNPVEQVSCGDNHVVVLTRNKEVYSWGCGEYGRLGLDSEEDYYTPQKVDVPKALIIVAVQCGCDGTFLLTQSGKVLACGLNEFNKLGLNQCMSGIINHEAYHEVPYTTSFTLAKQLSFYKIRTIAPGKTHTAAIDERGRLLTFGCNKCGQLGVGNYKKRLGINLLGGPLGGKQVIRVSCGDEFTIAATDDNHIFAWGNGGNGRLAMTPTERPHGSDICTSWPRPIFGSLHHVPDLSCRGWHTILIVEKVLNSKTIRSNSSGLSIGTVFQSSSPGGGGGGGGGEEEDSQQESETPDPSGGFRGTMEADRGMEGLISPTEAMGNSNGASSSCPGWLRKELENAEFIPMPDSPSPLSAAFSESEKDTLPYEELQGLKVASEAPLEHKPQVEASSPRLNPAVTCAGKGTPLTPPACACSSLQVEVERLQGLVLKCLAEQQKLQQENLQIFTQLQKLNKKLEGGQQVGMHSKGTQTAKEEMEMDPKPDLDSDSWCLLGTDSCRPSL

[O-][S@@+](Cc1cncs1)C(c1ccccc1)c1ccccc1 [S-CE-123, (S)-5-((Benzhydrylsulfinyl)Methyl)Thiazole]
remaining binding at 2.8 µM (TAOK1): 100%
remaining binding at 2.8 µM (DYRK2): 86%
remaining binding at 2.8 µM (PRKCI): 100%
remaining binding at 2.8 µM (ERN1): 86%
remaining binding at 2.8 µM (FER): 100%
remaining binding at 2.8 µM (MARK1): 93%
remaining binding at 2.8 µM [1]: 85%
remaining binding at 2.8 µM (IGF1R): 94%
remaining binding at 2.8 µM (NEK9): 100%
remaining binding at 2.8 µM (PIK3CA(C420R)): 92%
remaining binding at 2.8 µM (GRK7): 90%
remaining binding at 2.8 µM (p38-gamma): 100%
remaining binding at 2.8 µM (LZK): 94%
remaining binding at 2.8 µM [2]: 80%
remaining binding at 2.8 µM [3]: 100%
remaining binding at 2.8 µM (NEK5): 90%
remaining binding at 2.8 µM [4]: 73%
remaining binding at 2.8 µM [5]: 98%
remaining binding at 2.8 µM (FYN): 93%
remaining binding at 2.8 µM (FES): 95%
remaining binding at 2.8 µM (GRK2): 100%
remaining binding at 2.8 µM (PIK3CB): 93%
remaining binding at 2.8 µM (CSNK1G3): 98%
remaining binding at 2.8 µM (SGK): 94%
remaining binding at 2.8 µM (PAK1): 92%
remaining binding at 2.8 µM (TNK2): 100%
